# From US12372533B2, “Identification of immunogenic mutant peptides using genomic, transcriptomic and proteomic information” (Genentech, Inc., priority 2014, dated 2025)
# Where a SMILES comes first, the peptide text is derived from it.
# Key:
# Assay type in all cases: in vivo, mouse
# wild type C57BL/6 mice = experiment: Immunization of mice with long peptides plus adjuvant, CD8 T cell response by MHCI/peptide-specific dextramers; conditions: long peptides encoding the mutated epitopes plus adjuvant, day 0 and day 14, compared to adjuvant alone; FIG. 4A
# MC-38 tumors = experiment: Peptide-specific CD8 tumor-infiltrating cells (TILs) in MC-38 tumors, dextramer staining; conditions: for peptide-specific CD8 T cells in the tumor bed: FIG. 4B
# Excerpt: (§1) The immunogenicity of these mutated peptides was confirmed in the context of the tumor by analyzing tumor-infiltrating cells (TILs).
# C57BL/6 mice were implanted subcutaneously on the right flank with 1×10^5 MC-38 tumor cells. The whole tumor was isolated and digested with collagenase and DNAase to isolate TILs. TILs were stained with dextramers (as described above) followed by antibodies against CD45, Thy1.2, CD4, CD8 (BD Biosciences), PD-1 (eBiosciences) and TIM-3 (R&D Systems). Live/dead stain was used to gate on live cells.
# TRAMP-C1 tumors = experiment: Peptide-specific CD8 tumor-infiltrating cells in syngeneic TRAMP-C1 tumors
# Excerpt: as §1
Compound,CD8 T cell response (wild type C57BL/6 mice),peptide-specific CD8 T cells in the tumor bed (MC-38 tumors),"relative abundance of peptide-specific CD8 T cells among Reps1, Adpgk and Dpagt1 (MC-38 tumors)",Adpgk-specific CD8 T cells in tumor (TRAMP-C1 tumors)
"CC(C)C[C@H](NC(=O)[C@@H](NC(=O)[C@@H](NC(=O)[C@H](CC(=O)O)NC(=O)[C@H](CC(N)=O)NC(=O)[C@H](C)NC(=O)[C@H](CC(C)C)NC(=O)[C@H](CCC(N)=O)NC(=O)[C@H](C)N)C(C)C)C(C)C)C(=O)O [Reps1, AQLANDVVL] (H-AQLANDVVL-OH; N-terminus and C-terminus assumed)",strong CD8 T cell responses,enriched in the tumor bed,,
"ASMTNMELM [Adpgk, mutant peptide presented on MHCI (H-2Db) in the MC-38 cell line]",strong CD8 T cell responses,enriched in the tumor bed,most abundant of the three,no Adpgk-specific CD8 T cells were detected
"SIIVFNLL [Dpagt1, mutant peptide presented on MHCI (H-2Kb) in the MC-38 cell line]",weak CD8 T cells response,enriched in the tumor bed,,
